According to PMC7339578, “Multiple circulating alkaloids and saponins from intravenous Kang-Ai injection inhibit human cytochrome P450 and UDP-glucuronosyltransferase isozymes: potential drug–drug interactions” (Chinese Medicine, 2020):

Columns and labels:
CYP3A4 [1] = target: CYP3A4 (Homo sapiens, UniProt P08684); assay: Inhibition of recombinant CYP3A4 (probe nifedipine); assay type: in vitro ADME; settings: IC50 towards CYP3A4, recombinant isozyme; mean ± SD of triplicate; unit not given (IC50 classes in μM)
Chain of CYP3A4 (Homo sapiens, UniProt P08684) (P08684 whole entry): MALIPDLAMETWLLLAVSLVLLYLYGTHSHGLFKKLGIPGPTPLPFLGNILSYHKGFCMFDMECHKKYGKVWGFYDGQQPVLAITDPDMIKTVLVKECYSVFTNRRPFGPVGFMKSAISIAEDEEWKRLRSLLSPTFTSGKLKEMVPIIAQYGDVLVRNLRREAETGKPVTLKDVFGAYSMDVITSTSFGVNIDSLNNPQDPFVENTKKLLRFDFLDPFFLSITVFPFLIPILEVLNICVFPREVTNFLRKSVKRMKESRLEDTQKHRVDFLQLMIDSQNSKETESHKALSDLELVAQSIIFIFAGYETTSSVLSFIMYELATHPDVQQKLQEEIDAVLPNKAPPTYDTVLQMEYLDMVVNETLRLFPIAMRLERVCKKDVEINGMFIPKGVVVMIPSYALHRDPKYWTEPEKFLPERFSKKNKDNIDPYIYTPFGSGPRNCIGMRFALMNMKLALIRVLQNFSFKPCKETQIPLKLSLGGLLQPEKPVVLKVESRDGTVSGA
Procedure: (§1) In this study, phenacetin (100 μM), coumarin (100 μM), bupropion (100 μM), paclitaxel (60 μM), tolbutamide (200 μM), mephenytoin (100 μM), chlorzoxazone (200 μM) and nifedipine (40 μM) have been used as the probe substrates for CYP1A2, 2A6, 2B6, 2C8, 2C9, 2C19, 2E1 and 3A4, respectively.

P-gp = test system: P-gp; design: method as in PMID 24380838; settings: in vitro and in vivo; cited from earlier work
[2] = Protein binding assay (equilibrium dialysis); assay type: in vitro ADME, rat; settings: rat, plasma
Summary of the method: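 Rat plasma binding was measured by equilibrium dialysis (12–14 kDa cutoff membrane), equilibrated 24 h at 37 °C and 55 rpm. Alkaloids were tested at 2 μmol/L and saponins at 4 μmol/L. Unbound fraction = dialysate concentration/post-dialysis plasma concentration × 100%.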

UGT1A1 = target: T1, UGT1A1 (Homo sapiens, UniProt P22309); assay: Inhibition of expressed UGT1A1 (probe β-estradiol); assay type: in vitro ADME; settings: IC50 towards UGT1A1, recombinant isozyme; mean ± SD of triplicate; unit not given (IC50 classes in μM)
T1 sequence (P22309 26-533): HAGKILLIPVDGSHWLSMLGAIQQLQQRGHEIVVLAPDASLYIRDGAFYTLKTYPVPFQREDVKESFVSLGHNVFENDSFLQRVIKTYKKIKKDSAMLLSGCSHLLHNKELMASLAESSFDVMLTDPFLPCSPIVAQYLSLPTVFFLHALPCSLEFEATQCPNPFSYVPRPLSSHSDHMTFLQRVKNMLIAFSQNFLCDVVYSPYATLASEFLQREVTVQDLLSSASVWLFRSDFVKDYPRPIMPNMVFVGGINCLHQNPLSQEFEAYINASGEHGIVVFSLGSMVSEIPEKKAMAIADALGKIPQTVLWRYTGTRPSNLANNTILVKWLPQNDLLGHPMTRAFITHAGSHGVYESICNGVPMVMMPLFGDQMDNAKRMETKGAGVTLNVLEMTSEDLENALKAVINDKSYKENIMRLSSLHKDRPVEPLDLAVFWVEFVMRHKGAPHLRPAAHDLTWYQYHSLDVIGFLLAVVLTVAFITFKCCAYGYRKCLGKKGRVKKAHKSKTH
Procedure: (§2) After centrifugation (13,800g, 10 min), the supernatant (8 μL) was obtained for determination by UHPLC system.
(§3) Similarly, β-estradiol (60 μM), propofol (40 μM) and 4-MU (350 μM) were typically used as the substrates for UGT1A1, 1A9 and 2B7, respectively. After optimization of incubation conditions (Additional file 1: Fig. S2), the protein concentrations for UGT1A1, 1A9, and 2B7 were 0.125, 0.05, and 0.05 mg/mL, respectively.

CYP2B6 = target: T2, CYP2B6 (Homo sapiens, UniProt P20813); assay: Inhibition of recombinant CYP2B6 (probe bupropion); assay type: in vitro ADME; settings: IC50 towards CYP2B6, recombinant isozyme; mean ± SD of triplicate; unit not given (IC50 classes in μM)
T2 sequence (P20813 1-491): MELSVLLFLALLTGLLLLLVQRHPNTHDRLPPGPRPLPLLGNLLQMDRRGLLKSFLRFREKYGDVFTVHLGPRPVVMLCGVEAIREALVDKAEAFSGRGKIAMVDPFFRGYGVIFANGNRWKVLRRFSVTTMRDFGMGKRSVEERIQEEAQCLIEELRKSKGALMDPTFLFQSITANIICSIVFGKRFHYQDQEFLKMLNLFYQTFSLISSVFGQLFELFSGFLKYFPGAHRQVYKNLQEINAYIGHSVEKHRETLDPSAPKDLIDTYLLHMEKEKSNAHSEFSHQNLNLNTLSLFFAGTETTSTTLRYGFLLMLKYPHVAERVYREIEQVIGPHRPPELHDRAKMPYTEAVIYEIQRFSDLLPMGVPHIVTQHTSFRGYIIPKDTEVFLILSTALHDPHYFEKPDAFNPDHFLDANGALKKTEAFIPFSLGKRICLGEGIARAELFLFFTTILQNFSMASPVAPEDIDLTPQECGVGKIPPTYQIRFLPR
Procedure: as §1

UGT1A9 = target: T3, UGT1A9 (Homo sapiens, UniProt O60656); assay: Inhibition of expressed UGT1A9 (probe propofol); assay type: in vitro ADME; settings: IC50 towards UGT1A9, recombinant isozyme; mean ± SD of triplicate; unit not given (IC50 classes in μM)
T3 sequence (O60656 26-530): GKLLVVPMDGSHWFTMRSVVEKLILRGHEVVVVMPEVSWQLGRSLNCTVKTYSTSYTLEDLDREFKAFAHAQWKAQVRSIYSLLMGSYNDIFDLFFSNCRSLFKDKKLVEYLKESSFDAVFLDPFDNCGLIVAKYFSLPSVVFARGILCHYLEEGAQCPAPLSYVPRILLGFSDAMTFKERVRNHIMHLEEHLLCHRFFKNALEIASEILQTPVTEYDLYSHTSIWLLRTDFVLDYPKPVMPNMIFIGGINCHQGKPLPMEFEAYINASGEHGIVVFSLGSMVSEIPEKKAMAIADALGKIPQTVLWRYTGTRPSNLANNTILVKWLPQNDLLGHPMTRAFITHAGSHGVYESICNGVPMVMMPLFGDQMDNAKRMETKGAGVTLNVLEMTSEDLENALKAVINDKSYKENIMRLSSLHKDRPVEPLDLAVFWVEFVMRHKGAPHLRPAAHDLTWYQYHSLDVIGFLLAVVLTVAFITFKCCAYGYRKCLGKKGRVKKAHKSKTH
Procedure: as §2, §3

CYP2C19 = CYP2C19 (Homo sapiens, UniProt P33261); assay: Inhibition of recombinant CYP2C19 (probe mephenytoin); assay type: in vitro ADME
Chain of CYP2C19 (P33261 whole entry): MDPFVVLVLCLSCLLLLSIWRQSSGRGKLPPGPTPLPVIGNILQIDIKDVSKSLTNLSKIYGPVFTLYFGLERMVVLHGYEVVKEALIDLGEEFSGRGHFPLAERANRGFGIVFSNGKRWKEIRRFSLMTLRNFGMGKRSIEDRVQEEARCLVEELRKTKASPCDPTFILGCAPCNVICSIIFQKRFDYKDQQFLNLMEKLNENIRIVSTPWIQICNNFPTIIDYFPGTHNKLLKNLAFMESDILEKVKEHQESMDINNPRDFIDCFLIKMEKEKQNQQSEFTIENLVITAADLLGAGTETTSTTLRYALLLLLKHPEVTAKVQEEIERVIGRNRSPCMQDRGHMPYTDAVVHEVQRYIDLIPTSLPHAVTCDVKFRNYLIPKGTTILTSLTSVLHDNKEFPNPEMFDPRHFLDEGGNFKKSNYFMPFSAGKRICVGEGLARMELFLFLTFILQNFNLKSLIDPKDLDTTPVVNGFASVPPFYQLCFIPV
Procedure: as §1

[3] = design: method as in PMID 16500065; settings: intravenous infusion of 600 mg oxymatrine, healthy male volunteers; cited from earlier work
CYP3A4 [4] = test system: CYP3A4; design: method as in PMID 26586934; settings: CYP3A4 isozyme; read-out: Km (metabolism to matrine); cited from earlier work

Q: What does the source list for `O=C1CCC[C@@H]2[C@H]3CCC[N+]4([O-])CCC[C@@H](CN12)[C@@H]34` (stereo partly drawn) [Compound A3, Oxymatrine]?
A: IC50 (CYP3A4 [1]): > 100 µM; inhibition of P-gp (P-gp): did not demonstrate the inhibition of P-gp; fraction unbound at 24 h [2]: 0.932 ± 0.0652; IC50 (UGT1A1): > 100 µM; IC50 (CYP2B6): > 100 µM; IC50 (UGT1A9): > 100 µM; IC50 (CYP2C19): > 100 µM; fraction of oxymatrine reduced to matrine [3]: about 19.9%; Km (CYP3A4 [4]): 341 µM
